Source: US7794936B1, “Using thymidine analogs to improve replication in an expanded genetic alphabet” (priority 2006, dated 2010)

Experiments:
[1] = biological target: T1, KlenTaq polymerase (Thermus aquaticus, UniProt P19821); assay: Running-start primer extension reactions, incorporation opposite template isoG; format: biochemical; settings: template T-1, primer P-1, 72° C.; for incorporation / misincorporation opposite isoG (gel band, in words): time points 0.5, 1.0, 3.0 min
T1 construct: The “Klenow” fragment of Taq polymerase (Titanuim™ Taq) was purchased from BD Biosciences; purchased BD Biosciences (Mountain View, Calif.)
T1 sequence (P19821 281-832 limits assumed): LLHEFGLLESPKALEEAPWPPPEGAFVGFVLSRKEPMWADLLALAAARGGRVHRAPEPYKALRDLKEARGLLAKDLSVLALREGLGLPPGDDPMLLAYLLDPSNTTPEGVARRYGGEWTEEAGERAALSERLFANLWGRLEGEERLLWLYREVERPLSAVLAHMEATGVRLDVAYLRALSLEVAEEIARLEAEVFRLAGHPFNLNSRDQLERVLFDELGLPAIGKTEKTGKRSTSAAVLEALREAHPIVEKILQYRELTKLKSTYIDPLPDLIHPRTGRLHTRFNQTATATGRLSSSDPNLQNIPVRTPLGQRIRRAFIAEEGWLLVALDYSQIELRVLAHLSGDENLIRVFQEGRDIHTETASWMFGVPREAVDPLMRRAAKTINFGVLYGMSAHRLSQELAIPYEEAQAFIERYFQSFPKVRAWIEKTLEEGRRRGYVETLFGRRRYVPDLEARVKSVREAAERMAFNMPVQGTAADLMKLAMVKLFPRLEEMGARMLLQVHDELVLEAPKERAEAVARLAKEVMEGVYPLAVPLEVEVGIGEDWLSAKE
Procedure: (§1) The “Klenow” fragment of Taq polymerase (Titanuim™ Taq) was purchased from BD Biosciences (Mountain View, Calif.). As Titanium™ Taq is a “hot start” enzyme, the enzyme was heated to 95° C. for 2 minutes, followed by rapid cooling to ambient temperature prior to any primer extension reactions. Similarly, all polymerase chain reactions included an initial 2 minute 95° C. denaturation cycle.
In a typical primer extension reaction (25 μL total volume), 5′-^32P labeled primer (P-1, 25 pmol) and template (T-1, 30 pmol) were mixed with buffer (10 mM bis-trispropane-HCl pH 9.1, 5 mM MgCl2, 40 mM potassium acetate, 0.1 mg/ml bovine serum albumin), heated (95° C., 5 min), and cooled to room temperature over 1 hour. Polymerase (1 unit) was added, and the mixture again heated (72° C., 10 sec). Each PCR was initiated by adding the appropriate dNTPs (100 μM final concentration). Aliquots (2 μL) were removed from the mixture at time intervals, diluted into a PAGE loading/quench buffer (2 μL, 20 mM EDTA in formamide), heated (95° C., 5 min) and resolved by electrophoresis using a 20% PAGE (7 M urea). The gel was analyzed by phosphorimager. To enhance reproducibility, master mixes of the primer/template in buffer were prepared in large scale (100 μL).
Running-start primer extension reactions were performed with KlenTaq to determine the ability of the enzyme to incorporate either TTP or 2-thioTTP opposite isoG. For each reaction, the polymerase was challenged to misincorporate the respective triphosphate opposite the isoG residue at position 26 in the template (T-1), 3 nucleotides downstream of the primer (Pf-1) terminus. Reactions were run in parallel, one containing dGTP and TTP, one containing dGTP and 2-thioTTP, one containing dGTP and isoCTP (positive control), and one containing only dGTP (negative control). Aliquots of each reaction were quenched at various times and analyzed by PAGE on a 20% polyacrylamide gel.

[2] = biological target: T1, KlenTaq polymerase; assay: Direct nucleotide competition, single-turnover primer extension with APM gel separation; format: biochemical
Procedure: as §1
Single turnover primer extension reactions were performed by annealing 5′-^32P labeled primer (P-2f, 1 pmol) and template (T-2 or T-3, 1 pmol) in the appropriate buffer described above. Polymerase (1 pmol) was added, and the mixture was heated (72° C., 10 sec). The reaction was initiated by adding isoCTP (100 μM) and either 2-thioTTP (100 μM) or TTP (100 μM) in the presence of unlabeled trap DNA (P-2f, 100 pmol, T-2, 100 pmol). The reaction was quenched (20 mM EDTA in HCONH2) after 20 sec, and the samples resolved by 20% PAGE (7 M urea) containing p-acrylamidophenylmercury chloride (APM, 1 μg/mL). […] APM was synthesized as described [Igl88].
In two parallel reactions, one containing equal concentrations of 2-thioTTP and TTP, and one containing equal concentrations of 2-thioTTP and isoCTP, KlenTaq polymerase was challenged to choose a nucleotide to incorporate opposite isoG. […] The gel was analyzed via radioimaging.

[3] = biological target: T1, KlenTaq polymerase; assay: PCR amplification using 2-thioTTP as substitute for TTP (30 rounds, template T-3); format: biochemical; settings: 30 rounds of PCR, dATP, dCTP, dGTP plus thymidine analog, 2% agarose gel
Procedure: as §1
Amplicons testing the substitution of 2-thioTTP for TTP in a PCR were generated as above, using primers P-2f and P-2r (1 pmol each), template T-3 (6×10^4 molecules), and either all four natural dNTPs (100 μM each) or by substituting 2-thioTTP for TTP.
After showing that 2-thioTTP is misincorporated less frequently than TTP opposite isoG residues, we then established that 2-thioTTP works in a PCR amplification. For this purpose, replicate polymerase chain reactions with KlenTaq polymerase were performed using the PCR replicon consisting of primers P-2f and P-2r and template T-3. Three reactions were run in parallel, one containing the four natural dNTPs (positive control), one containing dCTP, dGTP, dATP, and 2-thioTTP, and one without TTP (negative control). Each amplification was cycled for 30 rounds, and the products were analyzed by electrophoresis on a 2% agarose gel.

[4] = biological target: T1, KlenTaq polymerase; assay: PCR fidelity assay of isoC:isoG base pair replication (acid cleavage at isoC); format: biochemical; settings: six letter PCR, template T-2, 30 cycles, fit to Y=100×(½+f/2)^x
Procedure: as §1
For each 6-letter nucleotide system investigated, seven parallel PCR mixtures were cycled (30 rounds, 95° C. for 45 sec. then 45° C. for 45 sec. then 72° C. for 1.5 min) with the same amounts of primers P-2f (^32P labeled) and P-2r (1 pmol; 6×10^11 molecules) and varying concentrations of template T2. […] As each 10 fold dilution in template was equivalent to ca. 3.3 rounds of amplification, the fidelity of the isoC:isoG replication could be monitored on a round-by-round basis, with each amplicon requiring a different number of exponential amplifications to consume the primers (Table 2.)
Following amplification, the mixtures were treated with an equal volume of acetic acid (0.1 mM), and heated (95° C., 30 min), a procedure that depyrimidinylates the iso-cytidines that have been incorporated. […] The NH4OH was allowed to evaporate, and the mixtures diluted in 2 volumes of gel loading buffer (98% formamide, 10 mM EDTA, 1 mg/mL bromophenol blue, 1 mg/mL xylene cyanol FF) and analyzed by denaturing PAGE (17%). […]

[5] = tested on: 2-aminoadenine; settings: cited from earlier work

SMILES	incorporation opposite isoG, isoCTP relative to TTP ([1]; after one and three minutes of incubation, dNTPs 100 μM)	incorporation / misincorporation opposite isoG (gel band, in words) [1]	substrate preference for incorporation opposite adenosine ([2]; 2-thioTTP and TTP in competition, template T-3)	extended product resulting from incorporation of 2-thioTTP opposite isoG ([2]; equal concentrations (100 μM) of 2-thioTTP and either TTP or isoCTP, template T-2, primer P-2f, 20 sec)	amount of PCR product [3]	fidelity-per-round of PCR for isoC:isoG base pair [4] [%]	decrease in Tm by pair with 2-aminoadenine ([5]; 20 nucleotide duplex) [°C]	destabilization of the duplex (ΔG) by pair with 2-aminoadenine ([5]; nucleobase pair between 2-thioT and 2-aminoadenine) [kcal/mol]
Nc1nc(=O)ccn1[C@H]1C[C@H](O)[C@@H](COP(=O)(O)OP(=O)(O)OP(=O)(O)O)O1 [isoCTP, 2′-deoxy-iso-cytidine triphosphate]	approximately 2 fold	incorporated most efficiently						
Cc1cn([C@H]2C[C@H](O)[C@@H](COP(=O)(O)OP(=O)(O)OP(=O)(O)O)O2)c(=S)[nH]c1=O [2-thioTTP, 2-thiothymidine triphosphate]		misincorporated very little	prefers 2-thioTTP over TTP	less than 1%	comparable amounts of product	98		
Cc1cn([C@H]2C[C@H](O)[C@@H](CO)O2)c(=S)[nH]c1=O [2-thioT, 2-thiothymidine]							2.4	0.8
